Data: US20100280082A1, “Metabotropic Glutamate Receptor Oxadiazole Ligands and Their Use as Potentiators” (AstraZeneca AB, priority 2007, published 2010)

Biological target: hERG ion channel (Homo sapiens, UniProt Q12809)
Test: hERG activity (process of Bridgland-Taylor et al.)
Format: cell-based
Experimental: hERG activity was assessed using the process described by Bridgland-Taylor, M. H., et al, J. Pharm. Tox. Methods 54 (2006) 189-199.

hERG ion channel, sequence (Q12809 whole entry): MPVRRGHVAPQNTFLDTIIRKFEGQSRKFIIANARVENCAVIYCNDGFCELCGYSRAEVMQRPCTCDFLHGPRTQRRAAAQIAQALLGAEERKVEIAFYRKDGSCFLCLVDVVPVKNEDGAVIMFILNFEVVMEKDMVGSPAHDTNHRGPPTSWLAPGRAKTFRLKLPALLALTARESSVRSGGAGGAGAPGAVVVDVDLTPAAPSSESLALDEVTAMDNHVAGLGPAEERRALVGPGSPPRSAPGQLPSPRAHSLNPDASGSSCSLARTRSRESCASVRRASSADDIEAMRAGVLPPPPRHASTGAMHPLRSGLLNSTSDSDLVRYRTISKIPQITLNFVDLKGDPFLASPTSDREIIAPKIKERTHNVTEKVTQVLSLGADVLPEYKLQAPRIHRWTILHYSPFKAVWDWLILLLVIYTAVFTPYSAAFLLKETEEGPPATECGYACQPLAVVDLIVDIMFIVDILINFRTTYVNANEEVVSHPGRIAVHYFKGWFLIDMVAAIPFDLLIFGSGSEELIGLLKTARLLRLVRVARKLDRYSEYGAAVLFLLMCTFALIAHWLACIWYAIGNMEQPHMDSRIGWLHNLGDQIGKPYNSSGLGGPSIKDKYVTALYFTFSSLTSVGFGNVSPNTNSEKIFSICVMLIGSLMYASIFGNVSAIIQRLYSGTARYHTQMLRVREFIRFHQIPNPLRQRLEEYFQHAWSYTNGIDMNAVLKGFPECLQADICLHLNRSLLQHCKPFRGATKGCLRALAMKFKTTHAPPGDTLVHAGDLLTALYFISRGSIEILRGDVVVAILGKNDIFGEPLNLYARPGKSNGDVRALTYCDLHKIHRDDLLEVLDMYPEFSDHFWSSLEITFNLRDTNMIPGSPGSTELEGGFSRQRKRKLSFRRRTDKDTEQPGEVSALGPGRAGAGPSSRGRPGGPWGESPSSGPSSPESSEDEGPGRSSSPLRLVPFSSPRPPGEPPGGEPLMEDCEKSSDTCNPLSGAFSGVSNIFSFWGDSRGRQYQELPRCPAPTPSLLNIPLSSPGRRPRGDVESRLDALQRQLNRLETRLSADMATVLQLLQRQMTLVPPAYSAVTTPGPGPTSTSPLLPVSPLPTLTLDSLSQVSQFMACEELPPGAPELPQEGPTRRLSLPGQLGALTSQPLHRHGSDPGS

In order of rising hERG:
1. Cc1cc(-c2noc(CN3CCNCC3)n2)cc2c1C(=O)N(Cc1ccc(Cl)cc1)C2 [Example 4, 2-(4-chlorobenzyl)-7-methyl-5-(5-piperazin-1-ylmethyl-[1,2,4]oxadiazol-3-yl)-2,3-dihydroisoindol-1-one]  8.9 µM
2. O=C1c2c(Cl)cc(-c3noc(CN4CCNCC4)n3)cc2CN1Cc1ccc(OC(F)(F)F)cc1 [Example 1, 7-Chloro-5-(5-piperazin-1-ylmethyl-[1,2,4]oxadiazol-3-yl)-2-(4-trifluoromethoxybenzyl)-2,3-dihydroisoindol-1-one]  10 µM
3. Cc1cc(-c2noc(CN3CCNC[C@H]3C)n2)cc2c1C(=O)N(Cc1ccc(Cl)cc1)C2 [Example 8, 2-(4-chloro-benzyl)-7-methyl-5-[5-(2-methyl-piperazin-1-ylmethyl)-[1,2,4]oxadiazol-3-yl]-2,3-dihydroisoindol-1-one]  11 µM
4. Cc1cc(-c2noc(CN3CCNC[C@@H]3C)n2)cc2c1C(=O)N(Cc1ccc(Cl)cc1)C2 [Example 9, 2-(4-chloro-benzyl)-7-methyl-5-[5-(2-methyl-piperazin-1-ylmethyl)-[1,2,4]oxadiazol-3-yl]-2,3-dihydroisoindol-1-one]  11 µM
5. Cc1cc(-c2noc(CN3CCNC(C)C3)n2)cc2c1C(=O)N(Cc1ccc(Cl)cc1)C2 (centres unmarked) [Example 10, 2-(4-chloro-benzyl)-7-methyl-5-[5-(3-methyl-piperazin-1-ylmethyl)-[1,2,4]oxadiazol-3-yl]-2,3-dihydroisoindol-1-one]  11 µM
6. Cc1cc(-c2noc(C(C)N3CCNCC3)n2)cc2c1C(=O)N([C@@H](C)c1ccc(Cl)cc1)C2 (stereo partly drawn) [Example 14, 2-[(S)-1-(4-Chloro-phenyl)-ethyl]-7-methyl-5-[5-(1-piperazin-1-yl-ethyl)-[1,2,4]oxadiazol-3-yl]-2,3-dihydro-isoindol-1-one]  11 µM
7. Cc1cc(-c2noc(CN3C[C@@H]4C[C@H]3CN4)n2)cc2c1C(=O)N([C@@H](C)c1ccc(Cl)cc1)C2 [Example 7, 2-[(S)-1-(4-Chloro-phenyl)-ethyl]-5-{5-[(1S,4S)-1-(2,5-diaza-bicyclo[2.2.1]hept-2-yl)methyl]-[1,2,4]oxadiazol-3-yl}-7-methyl-2,3-dihydro-isoindol-1-one]  12 µM
8. Cc1cc(-c2noc(CN3CCNCC3)n2)cc2c1C(=O)N(Cc1ccc(OC(F)(F)F)cc1)C2 [Example 3, 7-methyl-5-(5-piperazin-1-ylmethyl-[1,2,4]oxadiazol-3-yl)-2-(4-trifluoromethoxy-benzyl)-2,3-dihydroisoindol-1-one]  13 µM
9. CC1(C)CN(Cc2nc(-c3cc(Cl)c4c(c3)CN(Cc3ccc(OC(F)(F)F)cc3)C4=O)no2)CCN1 [Example 11, 7-chloro-5-[5-(3,3-dimethyl-piperazin-1-ylmethyl)-[1,2,4]oxadiazol-3-yl]-2-(4-trifluoromethoxy-benzyl)-2,3-dihydroisoindol-1-one]  13 µM
10. Cc1cc(-c2noc(C(C)N3CCNCC3)n2)cc2c1C(=O)N(Cc1ccc(Cl)cc1)C2 (centres unmarked) [Example 13, 2-(4-Chloro-benzyl)-7-methyl-5-[5-(1-piperazin-1-yl-ethyl)-[1,2,4]oxadiazol-3-yl]-2,3-dihydro-isoindol-1-one]  13 µM
11. O=C1c2c(Cl)cc(-c3noc(CN4CCNCC4)n3)cc2CN1Cc1ccc(Cl)cc1 [Example 2, 7-chloro-2-(4-chlorobenzyl)-5-(5-piperazin-1-ylmethyl-[1,2,4]oxadiazol-3-yl)-2,3-dihydroisoindol-1-one]  14 µM
12. Cc1cc(-c2noc(CN3CCNCC3)n2)cc2c1C(=O)N([C@@H](C)c1ccc(Cl)cc1)C2 [Example 6, 2-[(S)-1-(4-Chloro-phenyl)-ethyl]-7-methyl-5-(5-piperazin-1-ylmethyl-[1,2,4]oxadiazol-3-yl)-2,3-dihydro-isoindol-1-one]  14 µM
13. Cc1cc(-c2noc(CN3C[C@@H]4C[C@H]3CN4)n2)cc2c1C(=O)N(Cc1ccc(OC(F)(F)F)cc1)C2 [Example 5, 5-[5-(2,5-diaza-bicyclo[2.2.1]hept-2-ylmethyl)-[1,2,4]oxadiazol-3-yl]-7-methyl-2-(4-trifluoromethoxybenzyl)-2,3-dihydroisoindol-1-one]  17 µM
14. Cc1cc(-c2noc(C(C)N3CCNCC3)n2)cc2c1C(=O)N(Cc1ccc(OC(F)(F)F)cc1)C2 (centres unmarked) [Example 12, 7-Methyl-5-[5-(1-piperazin-1-yl-ethyl)-[1,2,4]oxadiazol-3-yl]-2-(4-trifluoromethoxy-benzyl)-2,3-dihydro-isoindol-1-one]  17 µM
